Where two headings read alike, the source gives them in different places. Non-standard residues stand in square brackets, D forms with d. Residues, ends and D or L forms follow the SMILES beside them. No end group written: not given here. Hyp = O=C(O)[C@@H]1C[C@@H](O)CN1
Experiments:
[1] = in vivo, po
Procedure: (§1) Blood was collected at 0.5 and 1 h, after oral administration, from the abdominal aorta and centrifuged (3000× g, 5 min) to acquire plasma. Next, the proteins were precipitated by adding three volumes of 100% ethanol and removed using centrifugation. A volume of 6 μL of supernatant were injected into the LC-MS/MS system, as previously described [16].

DPP-IV = tested on: DPP-IV; parameters: method as in PMID 24650211; settings: in words; cited from earlier work
[2] = Oral administration in rats, LC-MS/MS identification of peptides in plasma; settings: for Identification in rat plasma, 0.5 h: 0.5 h after oral administration of GPXGPPGPGP; for Identification in rat plasma, 0.5 h / Identification in rat plasma, 1 h: blood from abdominal aorta, ethanol protein precipitation; for Identification in rat plasma, 1 h: 1 h after oral administration of GPXGPPGPGP; for Identified in plasma at 0.5 h: rat plasma 0.5 h after oral administration of GPXGPPGPGP; for Identified in plasma at 0.5 h / Identified in plasma at 1 h: in words; for Identified in plasma at 1 h: rat plasma 1 h after oral administration of GPXGPPGPGP
Procedure: as §1

Caco-2 cell monolayer = settings: cited from earlier work

NCC(=O)N1CCC[C@H]1C(=O)N1C[C@H](O)C[C@H]1C(=O)O [GPX, Gly-Pro-Hyp] (H-Gly-Pro-[Hyp]-OH)
Identification in rat plasma, 0.5 h [1]: +
Identification in rat plasma, 1 h [1]: −
Identified in plasma at 1 h ([1]; rat): not at 1 h
Inhibitory effect against DPP-IV (DPP-IV): inhibitory effect against DPP-IV

O=C(O)[C@@H]1C[C@@H](O)CN1C(=O)[C@@H]1CCCN1 [PX, Pro-Hyp] (H-Pro-[Hyp]-OH)
Inhibitory effect against DPP-IV (DPP-IV): not inhibitory against DPP-IV
Identification in rat plasma, 0.5 h [2]: +
Identification in rat plasma, 1 h [2]: −
Identified in plasma at 0.5 h [2]: identified in plasma at 0.5 h
Identified in plasma at 1 h [2]: not at 1 h

O=C(O)CNC(=O)[C@@H]1C[C@@H](O)CN1C(=O)[C@@H]1CCCN1 [PXG, Pro-Hyp-Gly] (H-Pro-[Hyp]-Gly-OH)
Identification in rat plasma, 0.5 h [2]: +
Identification in rat plasma, 1 h [2]: −
Identified in plasma at 0.5 h [2]: identified in plasma at 0.5 h
Identified in plasma at 1 h [2]: not at 1 h

GA[Hyp]GL[Hyp]GP
Passage through the Caco-2 cell monolayer (Caco-2 cell monolayer): pass through the Caco-2 cell monolayer by paracellular diffusion

Reference: PMC9775409, “Identification, Screening, and Comprehensive Evaluation of Novel DPP-IV Inhibitory Peptides from the Tilapia Skin Gelatin Hydrolysate Produced Using Ginger Protease” (Biomolecules, 2022)
